Source: ChEMBL document CHEMBL3632528 (J Nat Prod, 2015)

How the values were obtained:
Liver carboxylesterase 1 = target: T1, Liver carboxylesterase 1 (Homo sapiens, UniProt P23141); assay: Inhibition of human carboxylesterase 1 using 2-(2'-benzoyl-3'-methoxylphenyl)-benzothiazole as substrate at 0.1 to 200 uM by fluorescence assay
T1 sequence (P23141 whole entry): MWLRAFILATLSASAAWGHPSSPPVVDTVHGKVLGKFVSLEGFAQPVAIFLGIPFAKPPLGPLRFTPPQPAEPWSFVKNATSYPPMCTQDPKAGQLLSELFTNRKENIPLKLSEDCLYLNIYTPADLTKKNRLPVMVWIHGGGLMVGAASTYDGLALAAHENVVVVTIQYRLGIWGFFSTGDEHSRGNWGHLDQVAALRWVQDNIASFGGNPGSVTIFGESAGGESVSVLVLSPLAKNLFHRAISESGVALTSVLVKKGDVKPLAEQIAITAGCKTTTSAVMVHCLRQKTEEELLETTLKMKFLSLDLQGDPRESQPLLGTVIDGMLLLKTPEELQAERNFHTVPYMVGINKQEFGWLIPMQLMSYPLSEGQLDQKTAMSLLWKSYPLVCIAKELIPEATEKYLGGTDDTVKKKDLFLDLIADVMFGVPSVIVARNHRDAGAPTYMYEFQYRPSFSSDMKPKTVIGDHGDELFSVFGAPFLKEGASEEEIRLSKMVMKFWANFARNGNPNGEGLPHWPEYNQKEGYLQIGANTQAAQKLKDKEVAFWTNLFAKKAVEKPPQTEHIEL

Cocaine esterase [1] = target: T2, Cocaine esterase (Homo sapiens, UniProt O00748); assay: Inhibition of human carboxylesterase 2 using 4-benzoyl-N-butyl-1,8-naphthalimide as substrate by fluorescence assay
T2 sequence (O00748 whole entry): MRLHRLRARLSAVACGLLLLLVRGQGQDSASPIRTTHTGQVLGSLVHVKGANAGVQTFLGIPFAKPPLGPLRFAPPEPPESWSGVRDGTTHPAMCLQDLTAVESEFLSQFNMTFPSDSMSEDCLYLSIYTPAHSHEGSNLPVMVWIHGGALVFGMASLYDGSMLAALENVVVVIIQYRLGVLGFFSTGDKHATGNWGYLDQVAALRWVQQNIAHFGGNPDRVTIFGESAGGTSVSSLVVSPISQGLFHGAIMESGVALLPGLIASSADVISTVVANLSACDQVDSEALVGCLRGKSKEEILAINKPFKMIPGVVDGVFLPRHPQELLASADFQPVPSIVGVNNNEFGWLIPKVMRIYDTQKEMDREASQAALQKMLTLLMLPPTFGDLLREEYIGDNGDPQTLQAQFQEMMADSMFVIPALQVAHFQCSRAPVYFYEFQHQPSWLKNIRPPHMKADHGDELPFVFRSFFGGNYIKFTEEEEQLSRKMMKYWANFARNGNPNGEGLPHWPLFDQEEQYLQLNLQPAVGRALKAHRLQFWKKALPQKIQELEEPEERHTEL

Cocaine esterase [2] = target: T2, Cocaine esterase; assay: […] inhibition of human carboxylesterase 2 using 4-benzoyl-N-butyl-1,8-naphthalimide as substrate by Dixon and Lineweaver-Burk plot analysis

Row | Structure (SMILES) | inhibition (INH) (Liver carboxylesterase 1) | IC50 (Cocaine esterase [1]) [µM] | Ki (Cocaine esterase [2]) [µM]
1 | C=C(C)[C@@H](O)[C@@H](O)C[C@@H](C)C1=C2CC[C@H]3[C@@]4(C)CCC(=O)C(C)(C)[C@@H]4CC[C@]3(C)[C@@]2(C)CC1 | Not Active | – | –
2 | C[C@H](CC(=O)[C@H](O)C(C)(C)O)C1=C2C=C[C@H]3[C@@]4(C)CCC(=O)C(C)(C)[C@@H]4CC[C@]3(C)[C@@]2(C)CC1=O | Not Active | – | –
3 | C=C(C)[C@@H](O)[C@@H](O)C[C@@H](C)C1=C2C=C[C@H]3[C@@]4(C)CCC(=O)C(C)(C)[C@@H]4CC[C@]3(C)[C@@]2(C)CC1=O | Not Active | 8.68 | –
4 | CC(=O)O[C@@H](C[C@@H](C)C1=C2C=C[C@H]3[C@@]4(C)CCC(=O)C(C)(C)[C@@H]4CC[C@]3(C)[C@@]2(C)CC1=O)[C@H](O)C(C)(C)O | Not Active | – | –
5 | C[C@H](C[C@H](O)[C@H](O)C(C)(C)O)C1=C2C=C[C@H]3[C@@]4(C)CCC(=O)C(C)(C)[C@@H]4CC(=O)[C@]3(C)[C@@]2(C)CC1=O | Not Active | – | –
6 | CC1(C)O[C@@H]1[C@@H](O)C[C@](C)(O)C1=C2C[C@H](O)[C@H]3[C@@]4(C)CCC(=O)C(C)(C)[C@@H]4CC[C@]3(C)[C@@]2(C)CC1=O | Not Active | – | –
7 | CCOC(C)(C)[C@H](O)[C@@H](O)C[C@@H](C)C1=C2C[C@H](O)[C@H]3[C@@]4(C)CCC(=O)C(C)(C)[C@@H]4CC[C@]3(C)[C@@]2(C)CC1 | Not Active | 4.72 | –
8 | C[C@H](C[C@H](O)[C@@H](O)C(C)(C)O)C1=C2C[C@H](O)[C@H]3[C@@]4(C)CCC(=O)C(C)(C)[C@@H]4CC[C@]3(C)[C@@]2(C)C=C1 | Not Active | – | –
9 | C[C@H](CC[C@H](O)C(C)(C)O)[C@H]1CC[C@@]2(C)C1=CC=C1[C@]2(C)CC[C@H]2C(C)(C)C(=O)CC[C@]12C | Not Active | 4.58 | –
10 | C[C@@H]1CC(=O)[C@@H](C(C)(C)O)O[C@H]2C[C@@]3(C)C(=C12)C=C[C@H]1[C@@]2(C)CCC(=O)C(C)(C)[C@@H]2CC[C@@]13C | Not Active | – | –
11 | CC1=CC(=O)C[C@@]2(C)[C@H]1CC[C@@]1(C)[C@H]2[C@@H](O)CC2=C([C@H](C)C[C@H](O)[C@@H](O)C(C)(C)O)CC[C@@]21C | Not Active | 2.02 | 1.76
12 | CC(=O)C1=C2C=C[C@H]3[C@@]4(C)CCC(=O)C(C)(C)[C@@H]4CC[C@]3(C)[C@@]2(C)CC1=O | Not Active | – | –
13 | CC(=O)O[C@@H]([C@@H](O)C[C@@H](C)C1=C2C[C@H](O)[C@H]3[C@@]4(C)CCC(=O)C(C)(C)[C@@H]4CC[C@]3(C)[C@@]2(C)CC1)C(C)(C)O | Not Active | – | –
14 | C[C@H](C[C@H](O)[C@H](O)C(C)(C)O)C1=C2C=C[C@H]3[C@@]4(C)CCC(=O)C(C)(C)[C@@H]4CC[C@]3(C)[C@@]2(C)CC1=O | Not Active | – | –
15 | C[C@H](C[C@H](O)[C@@H](O)C(C)(C)O)C1=C2CC[C@H]3[C@@]4(C)CCC(=O)C(C)(C)[C@@H]4CC[C@]3(C)[C@@]2(C)CC1 | Not Active | 4.63 | –
16 | CC(=O)O[C@H]1C[C@@H](C)C2=C3C[C@H](O)[C@H]4[C@@]5(C)CCC(=O)C(C)(C)[C@@H]5CC[C@]4(C)[C@@]3(C)C[C@@H]2O[C@@H]1C(C)(C)O | Not Active | – | –
17 | C[C@@H]1C[C@@H]([C@@H](O)C(C)(C)O)O[C@H]2C[C@@]3(C)C(=C12)C=C[C@H]1[C@@]2(C)CCC(=O)C(C)(C)[C@@H]2CC[C@@]13C | Not Active | – | –
18 | CC(=O)O[C@H]([C@@H]1C[C@@H](C)C2=C3C=C[C@H]4[C@@]5(C)CCC(=O)C(C)(C)[C@@H]5CC[C@]4(C)[C@@]3(C)C[C@@H]2O1)C(C)(C)O | Not Active | 24.3 | –
19 | C=C(C)[C@H](O)[C@@H]1C[C@@H](C)C2=C3C[C@H](O)[C@H]4[C@@]5(C)CCC(=O)C(C)(C)[C@@H]5CC[C@]4(C)[C@@]3(C)C[C@@H]2O1 | Not Active | – | –
20 | C[C@H](C[C@H](O)[C@@H](O)C(C)(C)O)C1=C2C[C@@H]3OC(=O)C[C@@]4(C)[C@H](C(C)(C)C(=O)O)CC[C@@](C)([C@@H]34)[C@@]2(C)CC1 | Not Active | 20.9 | –
21 | C[C@H](C[C@H](O)[C@@H](O)C(C)(C)O)C1=C2C[C@H](O)[C@H]3[C@@]4(C)CCC(=O)C(C)(C)[C@@H]4CC[C@]3(C)[C@@]2(C)CC1 [ALISOL A] | Not Active | – | –
